{"source": "patent US5646148A", "about": "“HIV protease inhibitors useful for the treatment of AIDS” (Merck & Co., Inc., priority 1995, dated 1997)", "key": {"HIV-1": {"tested_on": "HIV-1", "assay": "Cell spread assay: inhibition of the spread of HIV in cell culture (MT-4 T-lymphoid cells, p24)", "type": "cell-based", "settings": "Human immunodeficiency virus 1, 72 h, MT-4 T-lymphoid cells infected with HIV-1 (wild-type), 24 h preincubation, then 3 additional days with inhibitor, read-out: CIC95, inhibitor concentration which reduced the spread of infection by at least 95%", "description": "Inhibition of the spread of HIV in cell culture was measured according to Nunberg, J. H. et al., J. Virol. 65, 4887 (1991). In this assay, MT-4 T-lymphoid cells were infected with HIV-1 (wild-type, unless otherwise indicated) by using a predetermined inoculum, and cultures were incubated for 24 h. At this time, ≤1% of the cells were positive by indirect immunofluorescence. Cells were then extensively washed and distributed into 96-well culture dishes. Serial twofold dilutions of inhibitor were added to the wells, and cultures were continued for 3 additional days. At 4 days postinfection, 100% of the cells in control cultures were infected. HIV-1 p24 accumulation was directly correlated with virus spread. The cell culture inhibitory concentration was defined as the inhibitor concentration in nanomoles/liter which reduced the spread of infection by at least 95%, or CIC95. The CIC95 for compound A is 25 nM.\nINHIBITION OF VIRUS SPREAD\nA. Preparation of HIV-infected MT-4 cell Suspension. […]\nThe concentration of HIV p24 antigen is measured by an enzyme immunoassay, described as follows. Aliquots of p24 antigen to be measured are added to microwells coated with a monoclonal antibody specific for HIV core antigen. […]"}, "HIV protease": {"target": "T1, HIV protease (Human immunodeficiency virus type 1 group M subtype B, UniProt P04585)", "T1 construct": "the protease expressed in Eschericia coli; made in house; host or cells: Escherichia coli", "assay": "Assay for Inhibition of Microbial Expressed HIV Protease", "type": "biochemical", "settings": "protease expressed in Eschericia coli; peptide substrate Val-Ser-Gln-Asn-(betanapthyl)Ala-Pro-Ile-Val; 50 mM Na acetate, pH 5.5, 30° C., 1 hour; HPLC", "description": "Inhibition studies of the reaction of the protease expressed in Eschericia coli with a peptide substrate [Val-Ser-Gln-Asn-(betanapthyl)Ala-Pro-Ile-Val, 0.5 mg/mL at the time the reaction is initiated] were in 50 mM Na acetate, pH 5.5, at 30° C. for 1 hour. Various concentrations of inhibitor in 1.0 μl DMSO were added to 25 μl of the peptide solution in water. The reaction is initiated by the addition of 15 μl of 0.33 nM protease (0.11 ng) in a solution of 0.133M Na acetate pH 5.5 and 0.1% bovine serum albumin. The reaction was quenched with 160 μl of 5% phosphoric acid. Products of the reaction were separated by HPLC (VYDAC wide pore 5 cm C-18 reverse phase, acetonitrile gradient, 0.1% phosphoric acid). The extent of inhibition of the reaction was determined from the peak heights of the products."}}}
{"smiles": "CC(C)(C)NC(=O)C1CN(Cc2cnc3occc3c2)CCN1CC(O)CC(Cc1ccccc1)C(=O)NC1c2ccccc2CC1O", "note": "[Compound A, N-(2(R)-hydroxy-1(S)-indanyl)-2(R)-phenylmethyl-4(S)-hydroxy-5-(1-(4-(3-furo[2,3-b]pyridylmethyl)-2(S)-N'-(t-butylcarboxamido)-piperazinyl))pentaneamide]", "values": [{"measurement": "IC95", "setting": "HIV-1", "value": 25, "unit": "nM"}, {"measurement": "IC50", "setting": "HIV protease", "value": "~0.27", "unit": "nM"}]}
